Source: US20030124150A1, “Kit for reducing aching” (priority 2001, published 2003)

Key:
subjects [1] = experiment: Study 2: Compound A multiple dosing, non-escalating (Example 3) vs escalating (Example 4), myalgia/back pain (aching); format: in vivo; conditions: for Myalgia/back pain, Mild/moderate / Myalgia/back pain, Severe: subjects affected/dosed
Experimental: (§1) All adverse events observed or recorded during the studies were recorded by the investigator, including information about concomitant illnesses and therapeutic interventions. For all adverse events, the investigator pursued and obtained information adequate to determine the outcome of the adverse event. Physical examinations at screening and medical histories of all subjects were normal with no indication of any joint, muscle, or tendon weakness.
Six subjects were given 20 mg of Compound A three times a day (tid) for 7 days. Dosage took the form of immediate release tablets.
Nine subjects were given 2.5 mg of Compound A three times a day (tid) for 7 days, then 7.5 mg tid for 7 days, then 20 mg tid for a further 7 days. Dosage took the form of immediate release tablets.

subjects [2] = experiment: Study 3: Compound A escalating dosing with 24-hour drug holiday (Examples 6 and 7), myalgia and back pain (aching); format: in vivo; conditions: for Back pain, Mild / Back pain, Moderate / Back pain, Severe / Myalgia, Mild / Myalgia, Moderate / Myalgia, Severe: 20 mg tid 7 days, 24-hour drug holiday, 20 mg tid 6 days, subjects affected/dosed
Experimental: as §1
Nine subjects were given 2.5 mg of Compound A three times a day (tid) for 7 days followed by 20 mg tid for a further 7 days. The subjects were given a 24-hour drug holiday, i.e. a day without taking the inhibitor, then 20 mg tid dosing was continued for another 6 days. Dosage took the form of immediate release tablets.
Nine subjects were given 2.5 mg of Compound A three times a day (tid) for 4 days, then 7.5 mg tid for 3 days, then 20 mg tid for a further 7 days. The subjects were given a 24-hour drug holiday, i.e. a day without taking the inhibitor, then 20 mg tid dosing was continued for another 6 days. Dosage took the form of immediate release tablets.

subjects [3] = experiment: Aching as side effect of multiple dosing of PDE5 inhibitors (background observations); conditions: for aching as a side effect of multiple dosing: in vivo
Source text: A problem associated with the multiple daily dosing of PDE5 inhibitors is that subjects experience, as a side effect, aching in certain parts of the body. Subjects describe this aching as predominantly a dull aching without muscle tenderness. Aching is experienced predominantly in the“postural muscles”, typically the calves, thighs, buttocks, lower back, shoulders and neck regions. These symptoms may be described as myalgia or back pain; for the purposes of this application, they will be referred to as“aching”.

subjects [4] = experiment: Study 1: double blind, placebo-controlled, multiple dose study of sildenafil, adverse events (myalgia, back pain); format: in vivo; conditions: for Back pain / Myalgia: oral capsules, subjects affected/subjects dosed
Experimental: as §1
Dosage took the form of oral capsules.

subjects [5] = conditions: reported by H Padma-Nathan et al and Eli Lilly/ICOS presentation; cited from earlier work
[6] = Example 3: 20 mg tid for 7 days, immediate release tablets
[7] = Example 4: 2.5 mg tid 7 days, then 7.5 mg tid 7 days, then 20 mg tid 7 days
[8] = Example 4 escalating dosing regime
[9] = Example 6 escalating dosing regime
[10] = Example 7: 2.5 mg tid 4 days, 7.5 mg tid 3 days
[11] = Example 7 escalating dosing regime

## CCCc1nn(C)c2c(=O)[nH]c(-c3cc(C(=O)CN4CCOCC4)ccc3OCC)nc12 [Compound A, 5-(2-ethoxy-5-morpholinoacetylphenyl)-1-methyl-3-n-propyl-1,6-dihydro-7H-pyrazolo[4,3-d]pyrimidin-7-one]
Subjects [1]; [6]
  Myalgia/back pain, Mild/moderate: 0/6
  Myalgia/back pain, Severe: 6/6
Subjects [1]; Example 3: 20 mg tid, after only 4 days of treatment, six subjects
  subjects withdrawn due to the severity of the aching: four
Subjects [1]; [7]
  Myalgia/back pain, Mild/moderate: 1/9
  Myalgia/back pain, Severe: 1/9
Subjects [1]; [8]
  aching compared with non-escalating regime of Example 3: significant reduction in aching
  withdrawals: no withdrawals
Subjects [2]; Example 6, 20 mg tid resumed
  incidence of aching after the 24-hour drug-free period: no apparent increase
Subjects [2]; Example 6: 2.5 mg tid 7 days
  Back pain, Mild: 2/9
  Back pain, Moderate: 0/9
  Back pain, Severe: 0/9
  Myalgia, Mild: 2/9
  Myalgia, Moderate: 3/9
  Myalgia, Severe: 1/9
Subjects [2]; [9]
  aching compared with non-escalating regime of Example 3: significant reduction in aching
  withdrawals: no withdrawals
Subjects [2]; Example 7 (triple dosing)
  effectiveness of triple dosing in reducing aching: particularly effective in reducing aching
Subjects [2]; Example 7, 20 mg tid resumed
  incidence of aching after the 24-hour drug-free period: no apparent increase
Subjects [2]; [10]
  Back pain, Mild: 0/9
  Back pain, Moderate: 0/9
  Back pain, Severe: 0/9
  Myalgia, Mild: 4/9
  Myalgia, Moderate: 1/9
  Myalgia, Severe: 0/9
Subjects [2]; [11]
  aching compared with non-escalating regime of Example 3: significant reduction in aching
  withdrawals: no withdrawals

## CCCOc1ccc(S(=O)(=O)N2CCN(CC)CC2)cc1-c1nc2c(CC)n(Cc3ccccn3)nc2c(=O)[nH]1 [WO 98/49166, Example 4, 3-ethyl-5-[5-(4-ethylpiperazin-1-ylsulphonyl)-2-n-propoxyphenyl]-2-(pyridin-2-yl)methyl-2,6-dihydro-7H-pyrazolo[4,3-d]pyrimidin-7-one]
Subjects [3]
  aching as a side effect of multiple dosing: observed

## CCc1c2nc(-c3cc(S(=O)(=O)N4CCN(CC)CC4)cnc3OCCOC)[nH]c(=O)c2nn1Cc1ccccn1 [WO 99/54333, Example 4, 3-ethyl-5-[5-(4-ethylpiperazin-1-ylsulphonyl)-2-(2-methoxyethoxy)pyridin-3-yl]-2-(pyridin-2-yl)methyl-2,6-dihydro-7H-pyrazolo[4,3-d]-pyrimidin-7-one]
Subjects [3]
  aching as a side effect of multiple dosing: observed

## CCCc1nn(C)c2c(=O)[nH]c(-c3cc(S(=O)(=O)N4CCN(C)CC4)ccc3OCC)nc12 [sildenafil, 5-[2-ethoxy-5-(4-methyl-1-piperazinylsulphonyl)phenyl]-1-methyl-3-n-propyl-1,6-dihydro-7H-pyrazolo[4,3-d]pyrimidin-7-one]
Subjects [3]; 25 mg tid
  incidence of aching: 60%
Subjects [3]; 75 mg tid
  incidence of aching: 100%
Subjects [3]; higher doses (for example, 75 mg tid)
  day by which aching disappears: sixth or seventh day
Subjects [3]; multiple dosing regime
  day on which aching generally commences: second or third day
Subjects [4]; 25 mg tid
  Back pain: 2/10
  Myalgia: 2/10
Subjects [4]; 50 mg tid
  Back pain: 2/9
  Myalgia: 5/9
Subjects [4]; 75 mg tid
  reports of severe treatment-related adverse events which led to discontinuance of the treatment: three
  Back pain: 5/8
  Myalgia: 3/8
Subjects [4]; 25, 50 or 75 mg tid
  most common adverse events: back pain, headache and myalgia
Subjects [4]; lower doses (25 mg tid and 50 mg tid)
  persistence of headache and myalgia that occurred after a few days of treatment: did not persist with further treatment

## CN1CC(=O)N2[C@H](c3ccc4c(c3)OCO4)c3[nH]c4ccccc4c3C[C@@H]2C1=O [tadalafil, (6R, 12aR)-2,3,6,7,12,12a-hexahydro-2-methyl-6-(3,4-methylenedioxyphenyl)-pyrazino[2′,1′:6,1]pyrido[3,4-b]indole-1,4-dione]
Subjects [5]
  backache and myalgia: reported to cause backache and myalgia
